# Reference: US20240409963A1, “Use of Inhibitors to Increase Efficiency of Crispr/CAS Insertions” (AstraZeneca AB, priority 2021, published 2024)
# What was measured:
# HEK293T cells [1] = experiment: Different DNAPK inhibitors on precise gene editing outcomes, Example 8; conditions: for HDR to indel ratio / Precise KI fold increase: gINS + ssDNA; for Precise KI fold increase: vs DMSO; for MMEJ indels Mean / NHEJ indels Mean / Total editing Mean: sgRNA CD34 (gINS) + ssDNA, 70 hours post-transfection;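 on all read-outs here: cells transfected with plasmids for SpCas9-EGFP, editing outcomes quantified from genomic DNA by deep targeted amplicon sequencing with bioinformatic analysis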
# Protocol: Cells allowed to attach for 12 hours before transfection. Cells were transfected with DNA plasmids encoding for SpCas9-EGFP and a sgRNAs targeting CD34 (gINS) in the presence of single-stranded oligonucleotide donor (ssDNA). 70 hours post-transfection cell confluence and EGFP-based transfection efficiencies were determined with the Incucyte S3. Genomic DNA was extracted and editing outcome was analysed through deep-targeted amplicon sequencing using bioinformatic analysis.
# HEK293T cells [2] = experiment: PolQ inhibitor ART558 titration on precise gene editing outcomes, Example 10; format: cell-based; conditions: HEK293T, with 1 μM AZD7648
# Protocol: HEK293T cells were seeded into 96-well plates and allowed to attach for 20 hours.
Compound,HDR to indel ratio (HEK293T cells [1]; DNAPK inhibitor 0.3125 μM),Precise KI fold increase (HEK293T cells [1]; DNAPK inhibitor 0.3125 μM),HDR to indel ratio (HEK293T cells [1]; DNAPK inhibitor 0.625 μM),Precise KI fold increase (HEK293T cells [1]; DNAPK inhibitor 0.625 μM),HDR to indel ratio (HEK293T cells [1]; DNAPK inhibitor 1.25 μM),Precise KI fold increase (HEK293T cells [1]; DNAPK inhibitor 1.25 μM),HDR to indel ratio (HEK293T cells [1]; DNAPK inhibitor 5 μM),Precise KI fold increase (HEK293T cells [1]; DNAPK inhibitor 5 μM),HDR to indel ratio (HEK293T cells [1]; DNAPK inhibitor 10 μM),Precise KI fold increase (HEK293T cells [1]; DNAPK inhibitor 10 μM),MMEJ indels Mean (HEK293T cells [1]; DNAPK inhibitor 0.3125 μM),NHEJ indels Mean (HEK293T cells [1]; DNAPK inhibitor 0.3125 μM),Total editing Mean (HEK293T cells [1]; DNAPK inhibitor 0.3125 μM),MMEJ indels Mean (HEK293T cells [1]; DNAPK inhibitor 0.625 μM),NHEJ indels Mean (HEK293T cells [1]; DNAPK inhibitor 0.625 μM),Total editing Mean (HEK293T cells [1]; DNAPK inhibitor 0.625 μM),MMEJ indels Mean (HEK293T cells [1]; DNAPK inhibitor 1.25 μM),NHEJ indels Mean (HEK293T cells [1]; DNAPK inhibitor 1.25 μM),Total editing Mean (HEK293T cells [1]; DNAPK inhibitor 1.25 μM),MMEJ indels Mean (HEK293T cells [1]; DNAPK inhibitor 5 μM),further results
[2H]c1nc(C)nc([2H])c1-c1cc(NC[C@@H](C)c2cccc3c(C(=O)NC)ccnc23)ncn1,0.3,1.5 fold,0.5,2.2 fold,0.7,2.4 fold,1.1,2.8 fold,1.1,2.7 fold,15.8,25.0,66.8,17.8,16.7,66.8,18.1,9.0,60.4,17.1,NHEJ indels Mean (HEK293T cells [1]; DNAPK inhibitor 5 μM): 2.4; Total editing Mean (HEK293T cells [1]; DNAPK inhibitor 5 μM): 55.0; MMEJ indels Mean (HEK293T cells [1]; DNAPK inhibitor 10 μM): 17.3; NHEJ indels Mean (HEK293T cells [1]; DNAPK inhibitor 10 μM): 2.0; Total editing Mean (HEK293T cells [1]; DNAPK inhibitor 10 μM): 53.4
"Cc1nccnc1C(O)c1ccc(F)c(-c2ncnc3cc(N4CCOCC4)ccc23)c1 (centres unmarked) [TLR1, (4-fluoro-3-(7-morpholinoquinazolin-4-yl)phenyl) (3-methylpyrazin-2-yl) methanol]",0.4,1.9 fold,0.7,2.4 fold,0.9,2.6 fold,1.4,2.5 fold,1.5,2.0 fold,15.4,21.6,66.4,17.3,12.3,63.2,16.9,6.9,58.1,11.9,NHEJ indels Mean (HEK293T cells [1]; DNAPK inhibitor 5 μM): 1.7; Total editing Mean (HEK293T cells [1]; DNAPK inhibitor 5 μM): 44.5; MMEJ indels Mean (HEK293T cells [1]; DNAPK inhibitor 10 μM): 9.2; NHEJ indels Mean (HEK293T cells [1]; DNAPK inhibitor 10 μM): 1.3; Total editing Mean (HEK293T cells [1]; DNAPK inhibitor 10 μM): 34.1
Cc1cccc(N(C)C(=O)[C@@H]2[C@H](O)CCN2c2nc(C)cc(C(F)(F)F)c2C#N)c1 [ART558],–,–,–,–,–,–,–,–,–,–,–,–,–,–,–,–,–,–,–,–,precise knock-in frequencies of the single-stranded oligonucleotide donor (HEK293T cells [2]; concentration-dependent): increases; unprecise DNA repair events (HEK293T cells [2]; with increasing inhibitor concentration): decreases
"Cc1cc2ncnn2cc1Nc1ncc2c(n1)N(C1CCOCC1)CC(=O)N2C [TLR2, 5-methyl-2-((7-methyl-[1,2,4]triazolo[1,5-a]pyridin-6-yl)amino)-8-(tetrahydro-2H-pyran-4-yl)-7,8 dihydropteridin-6 (5H)-one]",0.6,2.3 fold,0.9,2.5 fold,1.0,2.3 fold,1.1,2.6 fold,1.1,2.1 fold,16.7,13.5,62.8,17.1,6.1,56.8,16.0,3.2,49.7,16.2,NHEJ indels Mean (HEK293T cells [1]; DNAPK inhibitor 5 μM): 2.1; Total editing Mean (HEK293T cells [1]; DNAPK inhibitor 5 μM): 50.9; MMEJ indels Mean (HEK293T cells [1]; DNAPK inhibitor 10 μM): 13.6; NHEJ indels Mean (HEK293T cells [1]; DNAPK inhibitor 10 μM): 1.8; Total editing Mean (HEK293T cells [1]; DNAPK inhibitor 10 μM): 42.4
